Measurements from US20220098154A1 (IDEAYA Biosciences, Inc., priority 2019, published 2022).

Biological target: T1, Pol theta polymerase domain (residues 1819-2590) (Homo sapiens, UniProt O75417)
T1 construct: Pol theta polymerase domain (residues 1819-2590)
T1 sequence (O75417 1819-2590): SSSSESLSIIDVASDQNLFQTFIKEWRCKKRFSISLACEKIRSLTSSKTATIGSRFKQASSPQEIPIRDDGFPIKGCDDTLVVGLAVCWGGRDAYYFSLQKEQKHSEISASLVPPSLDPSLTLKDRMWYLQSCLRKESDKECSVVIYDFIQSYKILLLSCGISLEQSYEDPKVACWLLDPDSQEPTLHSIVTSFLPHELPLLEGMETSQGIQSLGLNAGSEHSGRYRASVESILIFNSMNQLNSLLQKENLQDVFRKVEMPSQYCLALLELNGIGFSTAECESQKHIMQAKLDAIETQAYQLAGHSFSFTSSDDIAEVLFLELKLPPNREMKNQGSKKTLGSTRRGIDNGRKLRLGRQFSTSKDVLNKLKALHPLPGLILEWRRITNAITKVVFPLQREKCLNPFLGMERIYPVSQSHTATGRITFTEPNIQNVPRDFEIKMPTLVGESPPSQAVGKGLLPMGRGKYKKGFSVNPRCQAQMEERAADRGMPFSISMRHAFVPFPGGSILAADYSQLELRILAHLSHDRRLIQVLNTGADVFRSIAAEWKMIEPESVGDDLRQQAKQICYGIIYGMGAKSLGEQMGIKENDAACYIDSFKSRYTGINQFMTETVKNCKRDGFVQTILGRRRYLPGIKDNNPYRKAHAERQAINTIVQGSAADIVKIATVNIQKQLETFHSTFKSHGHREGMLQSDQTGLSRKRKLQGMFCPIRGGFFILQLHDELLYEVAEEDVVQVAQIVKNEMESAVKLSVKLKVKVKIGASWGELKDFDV
Experiment: Primer extension assay: inhibition of polymerase activity of Pol theta (molecular beacon fluorescence)
Format: biochemical
Conditions: Pol theta polymerase domain 4 nM; 15 min pre-incubation; fluorescence change over 30 min (ex 485 nm, em 535 nm); 11-point dilution series
Method: The ability of the compounds of Formula (I) to inhibit polymerase activity of Pol theta was determined using the assay described below.
A mixture of 20 uL of Pol theta polymerase domain (residues 1819-2590) at a final concentration of 4 nM in assay buffer (20 m M TRIS, pH 7.80, 50 mM KCl, 10 mM MgCl2, 1 mM DTT, 0.01% BSA, 0.01% Tween20) was added to test compounds (11-point dilution series of test compounds) except the low control wells without test compounds. The above enzyme and test compound inhibitor mixture was then incubated at room temperature for 15 min. An equal volume (20 μl) of dNTP substrate mixture (48 μM) and primed molecular beacon DNA (obtained by annealing template SEQ ID NO 2: (5′-CCTTCCTCCCGTGTCTTG-TACCTTCCCGTCA-GGAGGAAGG-3′) with 5′-TAMRA and 3′-BHQ and primer DNA (SEQ ID NO: 3; 5′-GACGGGAAGG-3′) in 10 mM Tris-HCl pH 8.0, 100 mM NaCl buffer) (96 nM) in assay buffer was added to all the test wells. The inhibition activity was measured by monitoring the fluorescence change over 30 min at 535 nm upon excitation at 485 nm. The high control (DMSO with enzyme) with high fluorescence intensity represents no inhibition of polymerase reaction while the low control (DMSO with buffer) with low fluorescence intensity represents full inhibition of polymerase activity. Slope of the reaction progress curves were used to calculate the rate of polymerization. The rates were used to determine the percent inhibition using a four-parameter inhibition model to generate IC50, Hill slope and max inhibition.

Row | IC50 [nM] | SMILES
1 | < 200 | Cc1nc(OCC(=O)N(C)c2ccc(Cl)c(Cl)c2)c(C#N)c(C)c1Cl [Example 33, 2-(5-chloro-3-cyano-4,6-dimethylpyridin-2-yloxy)-N-(3,4-dichlorophenyl)-N-methylacetamide]
2 | 200 to 500 | Cc1nc(NCC(=O)N(c2ccc(Cl)cc2)C(C)C)c(C#N)c(C)c1Cl [Example 30, 2-[(5-chloro-3-cyano-4,6-dimethylpyridin-2-yl)-amino]-N-(4-chlorophenyl)-N-(propan-2-yl)-acetamide]
3 | < 200 | CN(C(=O)CNc1cc(C(F)(F)F)cc(C(F)(F)F)c1)c1ccc(F)cc1 [Example 12, 2-((3,5-bis(trifluoromethyl)phenyl)amino)-N-(4-fluorophenyl)-N-methylacetamide]
4 | < 200 | Cc1nc(NCC(=O)N(C)c2ccc(Br)cc2)c(C#N)c(C)c1Cl [Example 39, N-(4-bromophenyl)-2-(5-chloro-3-cyano-4,6-dimethyl-pyridin-2-ylamino)-N-methylacetamide]
5 | < 200 | CN(C(=O)CNc1nc(C(F)(F)F)cc(C(F)(F)F)c1C#N)c1ccc(Br)cc1 [Example 61, N-(4-bromophenyl)-2-((3-cyano-4,6-bis(trifluoromethyl)pyridin-2-yl)amino)-N-methylacetamide]
6 | < 200 | CN(C(=O)CNc1nc(C(F)(F)F)cc(C(F)(F)F)c1C#N)c1ccc2sccc2c1 [Example 53, N-(benzo[b]thiophen-5-yl)-2-((3-cyano-4,6-bis(trifluoromethyl)pyridin-2-yl)-amino)-N-methylacetamide]
7 | 200 to 500 | Cc1nc(NCC(=O)N(C)c2ccccc2)c(C#N)cc1Cl [Example 38, 2-(5-chloro-3-cyano-6-methylpyridin-2-ylamino)-N-methyl-N-phenylacetamide]
8 | < 200 | CN(C(=O)CNc1cc(C(F)(F)F)cc(C(F)(F)F)n1)c1ccc(F)cc1 [Example 7, 2-((4,6-bis(trifluoromethyl)pyridin-2-yl)amino)-N-(4-fluoro-phenyl)-N-methylacetamide]
9 | 200 to 500 | Cc1nc(NCC(=O)N(C)c2cccc(C#N)c2)c(C#N)c(C)c1Cl [Example 21, 2-((5-chloro-3-cyano-4,6-dimethylpyridin-2-yl)-amino)-N-(3-cyanophenyl)-N-methylacetamide]
10 | < 200 | Cc1nc(NCC(=O)N(C)c2ccc(F)cc2)c(Cl)c(C)c1Cl [Example 23, 2-(3,5-dichloro-4,6-dimethylpyridin-2-ylamino)-N-(4-fluoro-phenyl)-N-methylacetamide]
11 | < 200 | Cc1nc(NCC(=O)N(C)c2ccc(Cl)c(Cl)c2)c(C#N)c(C)c1Cl [Example 32, 2-(5-chloro-3-cyano-4,6-dimethylpyridin-2-ylamino)-N-(3,4-dichlorophenyl)-N-methylacetamide]
12 | < 200 | N#Cc1c(C(F)(F)F)cc(C(F)(F)F)nc1NCC(=O)N(CC(F)(F)F)c1ccc(F)cc1 [Example 8, 2-(3-cyano-4,6-bis(trifluoromethyl)pyridin-2-yl-amino)-N-(4-fluorophenyl)-N-(2,2,2-trifluoroethyl)-acetamide]
13 | 200 to 500 | CN(C(=O)CNc1cc(Cl)cc(Br)c1)c1ccc(F)cc1 [Example 20, 2-[(3-bromo-5-chlorophenyl)amino]-N-(4-fluoro-phenyl)-N-methylacetamide]
14 | < 200 | CN(C(=O)CNc1nc(C(F)(F)F)cc(C(F)(F)F)c1C#N)c1ccc2c(ccn2C)c1 [Example 55, 2-((3-cyano-4,6-bis(trifluoromethyl)pyridin-2-yl)amino)-N-methyl-N-(1-methyl-1H-indol-5-yl)acetamide]
15 | < 200 | Cc1nc(OCC(=O)N(C)c2ccc(Br)cc2)c(C#N)c(C)c1Cl [Example 35, N-(4-bromophenyl)-2-[(5-chloro-3-cyano-4,6-dimethylpyridin-2-yl)oxy]-N-methylacetamide]
16 | 500 to 1000 | CN(C(=O)CNc1ncc2c(c1C#N)CCC2)c1ccc(F)cc1 [Example 24, 2-(4-cyano-6,7-dihydro-5H-cyclopenta[c]pyridin-3-ylamino)-N-(4-fluorophenyl)-N-methylacetamide]
17 | < 200 | CN(C(=O)CNc1nc(C(F)(F)F)cc(C(F)(F)F)c1C#N)c1ccc(F)cc1 [Example 10, 2-(3-cyano-4,6-bis(trifluoromethyl)pyridin-2-yl-amino)-N-(4-fluorophenyl)-N-methylacetamide]
18 | < 200 | Cc1nc(OCC(=O)N(C)c2ccc(F)cc2)c(C#N)c(C)c1Cl [Example 43, 2-[(5-chloro-3-cyano-4,6-dimethylpyridin-2-yl)oxy]-N-(4-fluoro-phenyl)-N-methylacetamide]
19 | < 200 | CN(C(=O)CNc1nc(C(F)(F)F)cc(C(F)(F)F)c1C#N)c1ccc(OC2CC2)cc1 [Example 5, 2-((3-cyano-4,6-bis(trifluoromethyl)pyridin-2-yl)-amino)-N-(4-cyclopropoxyphenyl)-N-methyl-acetamide]
20 | < 200 | CN(C(=O)CNc1cc(Cl)cc(C(F)(F)F)c1)c1ccc(F)cc1 [Example 13, 3-[[3-chloro-5-(trifluoromethyl)phenyl]amino]-N-(4-fluoro-phenyl)-N-methylacetamide]
21 | < 200 | Cc1c(C#N)c(NCC(=O)N(C)c2ccc(F)cc2)nc2c1CCC2 [Example 27, 2-([3-cyano-4-methyl-5H,6H,7H-cyclopenta[b]-pyridin-2-yl]amino)-N-(4-fluorophenyl)-N-methylacetamide]
22 | 200 to 500 | Cc1cc(OCC(=O)N(C)c2ccccc2)nc(C)c1Cl (racemic) [Example 36, 2-(5-chloro-4,6-dimethylpyridin-2-yloxy)-N-methyl-N-phenyl-acetamide]
23 | < 200 | CN(C(=O)CNc1nc(C(F)(F)F)cc(C(F)(F)F)c1C#N)c1ccc2[nH]ccc2c1 [Example 56, 2-((3-cyano-4,6-bis(trifluoromethyl)pyridin-2-yl)amino)-N-(1H-indol-5-yl)-N-methylacetamide]
24 | < 200 | CN(C(=O)CNc1nc(C(F)(F)F)cc(C(F)(F)F)c1C#N)c1ccc2occc2c1 [Example 46, N-(benzofuran-5-yl)-2-((3-cyano-4,6-bis(trifluoromethyl)pyridin-2-yl)amino)-N-methylacetamide]
25 | < 200 | CN(C(=O)CNc1nc(C(F)(F)F)cc(C(F)(F)F)c1C#N)c1ccc(OC(F)(F)F)cc1 [Example 6, 2-((3-cyano-4,6-bis(trifluoromethyl)pyridin-2-yl)-amino)-N-methyl-N-(4-(trifluoromethoxy)phenyl)-acetamide]
26 | < 200 | CN(C(=O)CNc1cc(Cl)cc(C(F)(F)F)c1C#N)c1ccc(F)cc1 [Example 11, 2-[[5-chloro-2-cyano-3-(trifluoromethyl)phenyl]-amino]-N-(4-fluorophenyl)-N-methylacetamide]
27 | 200 to 500 | Cc1nc(N[C@@H](CCO)C(=O)N(C)c2ccc(F)cc2)c(C#N)c(C)c1Cl [Example 15, (S)-2-(5-chloro-3-cyano-4,6-dimethylpyridin-2-yl-amino)-N-(4-fluorophenyl)-4-hydroxy-N-methyl-butanamide]
28 | 500 to 1000 | CN(C(=O)CNc1nc(C(F)(F)F)cc(C(F)(F)F)c1C#N)c1cccc(C(N)=O)c1 [Example 1, 3-(2-(3-cyano-4,6-bis(trifluoromethyl)pyridin-2-yl-amino)-N-methylacetamido)benzamide]
29 | < 200 | COc1ccc(N(C)C(=O)CNc2nc(C(F)(F)F)cc(C(F)(F)F)c2C#N)cc1 [Example 9, 2-[[3-cyano-4,6-bis(trifluoromethyl)pyridin-2-yl]-amino]-N-(4-methoxyphenyl)-N-methylacetamide]
30 | < 200 | Cc1nc(NCC(=O)N(C)c2ccc(F)cc2F)c(C#N)c(C)c1Cl [Example 26, 2-((5-chloro-3-cyano-4,6-dimethylpyridin-2-yl)-amino)-N-(2,4-difluorophenyl)-N-methylacetamide]
